Some results are limits rather than exact numbers.

`Nc1sccc1C(=O)c1cccc(C(F)(F)F)c1` came in with a melting point of 143 to 145 °C.
Turning to `CCCN1CC(c2ccc(S(C)(=O)=O)cc2)=C(Oc2ccccc2)C1=O`, the melting point lay in the range of 163 to 165 °C.
As for `CCOC(=O)C(=CNc1ccnn1CC)C(=O)OCC`, the melting point was 50 to 53 °C.
Next, `COc1cccc(C(=NO)c2ccc(F)cc2F)c1`: 122 to 127 °C.
For the compound `O=C1CCC(=O)N1Sc1ccccc1`, the melting point was 110 to 112 °C.
`CCOc1ncc(C(C)=O)cc1-c1nc2c(CC)n(CC3CC3)nc2c(=O)[nH]1` returned a melting point of 200 to 201 °C.
In turn, `CCC1(O)C(=O)OCc2c1cc1n(c2=O)Cc2cc3cc(O)ccc3nc2-1` (centres undefined) displayed a melting point of 230 to 235 °C.
Take `O=C(Nc1ccccc1)O[C@@H]1CN=C(c2cccs2)O[C@H]1c1ccccc1` (racemic): the melting point turned out to be 98 °C.
Next, `CCS(=O)(=O)c1nnc(NN)s1`: 166 to 167 °C; `O=C(NC(c1ccccc1)C(O)C(=O)OCc1ccccc1)c1ccccc1` (centres undefined): 129 to 131 °C; `O=C(O)c1cn(-c2ccc(F)cc2)c2c(F)c(N3Cc4cccc(O)c4C3)c(F)cc2c1=O`: > 300 °C.
The compound `OCC1CC(O)C(n2cnc3cc(Cl)c(Cl)cc32)C1` (centres undefined) yielded a melting point of 244 to 245 °C.
Take `CCCCCCCCCCCCCCCCSCC(CO)NC(=O)OC(C)(C)C` (centres undefined): the melting point is 48 to 50 °C.
In turn, `CNc1c([N+](=O)[O-])c(Br)nn1Cc1ccccc1` gave a melting point of 116 °C.
In the case of `Cc1cccc2nc(C)n(-c3ccccc3)c12` it was 107 to 109 °C.
The compound `O=C1COc2cc(F)c(N3C(=O)C4=C(CCCC4)C3=O)cc2N1Cc1ccccn1` gave a melting point of 188 to 190 °C.
Next, `Cc1ccc(C(C)C)c2oc(SCCN3CCN(CC(=O)Nc4c(C(C)C)cccc4C(C)C)CC3)nc12`: 133 to 134 °C.
In turn, `O=C(NS(=O)(=O)c1ccccc1-c1ccc(Cn2c(CCCC(F)(F)F)nn(-c3ccccc3C(F)(F)F)c2=O)cc1)c1ccccc1` had a melting point of 197 to 199 °C.
In turn, `COc1cc(C(C)=O)ccc1OCCCCN1CCN(c2nsc3ccccc23)CC1` gave a melting point of 114 to 116 °C.
Next, `N#CC(NC(=O)c1ccccc1)n1cccn1` (centres undefined): 169 to 174 °C; `CC1=C(C(=O)OCC2COc3ccccc3O2)C(c2c(F)c(F)c(F)c(F)c2F)C2=C(CNCC2=O)N1` (centres undefined): 167 to 170 °C.
Compound `C=CCn1c(NCC#N)nc(N2CCc3ccccc3CC2)c(C#N)c1=O` showed a melting point of 198 to 203 °C.
In the case of `Cc1ccc(S(=O)(=O)N(Cc2ccccc2)N=O)cc1` it was 92 to 93 °C; in that of `O=C(NCc1ccc(Cl)cc1)c1cnc2sc(Br)cc2c1O`, 234 to 236 °C.
The compound `Cc1ccc(C(=O)c2ccc(Cc3c(Cl)cc(N)cc3Cl)cc2)cn1` returned a melting point of 153 to 155 °C.
The compound `COc1ccc(C(=O)Nc2nc3ccc(N(C)C)cc3c(NCc3ccccc3)c2C#N)cc1` returned a melting point of 185 °C.
`O=C1NC(=O)C(c2cc(Cl)ccc2S(=O)(=O)Cl)N1` (centres undefined) returned a melting point of 211 to 212 °C.
Next, `CN1CC(C(=O)NCc2cccnc2)CC2c3cccc4c3c(cn4C)CC21` (centres undefined): 185 to 187 °C; `CN(C)CCc1cn(C(=O)c2ccccc2)c2ccc(O)cc12`: 154 to 156 °C.
In the case of `CC1(C)CC(NC(=O)NCc2ccccc2)c2cc(C#N)ccc2O1` (centres undefined) it was 140 to 141 °C; in that of `N#Cc1cnn(-c2ccc(Cl)c(Cl)c2Cl)c1C=CC(=O)O`, 215 to 219 °C; in that of `COc1ccc(COc2cc(NC(C)=O)c(Cl)cc2C(=O)CCCCCl)cc1OC`, 147 °C.
In the case of `COC1(C)CCc2cc(O)c(C(C)(C)C)cc2O1` (centres undefined) it was 115 to 117 °C; in that of `CCCc1nn(C)c2c(=O)n(CCCOc3ccc(SC(C)(C)C(=O)OCC)cc3)c(CC)nc12`, 52 to 54 °C; in that of `COC(=O)c1ccc(COc2cc3c(=O)ccn4c5ccc(Br)cc5c(c2)c34)nc1`, 75.2 to 76.3 °C.
`COC(=O)c1ccc([N+](=O)[O-])cc1S(=O)(=O)N(C)C`: the melting point was in the range of 93 to 96 °C.
`O=C(N=CN1CCCCC1)C(O)(C(=O)N=CN1CCCCC1)c1ccc(Cl)c(Cl)c1` (centres undefined) displayed a melting point of 195 °C.
In the case of `CC(C)(C)c1ccc(Sc2ccc(Br)cc2)cc1` it was 39 to 46 °C; in that of `Cc1ccc(S(=O)(=O)N2CCC(Sc3ccc(F)cc3)CC2)cc1`, 131 to 132 °C; in that of `CC(C)(C#N)c1cc(-n2cncc2C#N)cc(C(C)(C)C#N)c1`, 88 to 90 °C.
In turn, `CCCC12CCC3C4CCC(=O)C=C4CCC3C1CCC2O` (centres undefined) showed a melting point of 126 to 127 °C.
The compound `CC(N)c1ccc(NS(C)(=O)=O)c(Sc2ccc(F)cc2F)c1` (centres undefined) yielded a melting point of 165 to 166 °C.
On to `CSc1ncncc1C1c2c(F)cccc2CC1(C)C` (centres undefined), for which the melting point was in the range of 81 to 82 °C.
As for `CC12CCC(=O)C=C1CCC1C2C(O)CC2(C)C1CCC2(O)C(=O)COC(=O)CC(CC(=O)O)c1ccc(O)cc1` (centres undefined), the melting point was 98 to 110 °C.
In the case of `Cc1ccc(-c2cc(C(F)(F)F)nn2-c2ccc(S(=O)(=O)NO)cc2)cc1` it was 203 °C; in that of `CC(C)(CO)Cc1ccc(CC(C)(C)CO)cc1`, 104 to 105 °C.
The compound `O=C(O)COc1cc(F)ccc1C(=O)NCc1nc2cc(C(F)(F)F)ccc2s1` gave a melting point of 206 to 208 °C.
Next, `CC1(C)CCC(C)(C)c2cc(-c3cc(-c4ccc(C(=O)O)cc4)ccc3OCCCNC3CC3)ccc21`: 192 °C.
On to `N#Cc1ccc[nH]c1=S`, for which the melting point was 243 to 246 °C.
On to `Cc1cc2c([nH]c1=O)C(=O)c1ccccc1C2=O`, for which the melting point was > 300 °C.
In the case of `S=c1[nH]c(=S)c2ccccc2[nH]1` it was 234 to 237 °C.
`Nc1ccc2ncnc(Nc3cccc(C(F)(F)F)c3)c2c1`: the melting point was 190 to 192 °C.
In turn, `CC(C)=CC(=O)NCC1Cc2ccc(-c3ccc(=O)[nH]n3)cc2C1` (centres undefined) had a melting point of 204 to 205 °C.
On to `COc1ccc(Oc2c(Cl)cc(-n3ncc(=O)[nH]c3=O)cc2Cl)cc1C=O`, for which the melting point fell in the range of 184 to 187 °C.
Compound `c1ccc2c(c1)-c1ccccc1C2Cc1nc(COc2ccc(CCCn3ccnc3)cc2)co1` had a melting point of 145 to 146 °C.
Next, `CCOC1CC(n2cc(C(F)(F)F)c(=O)[nH]c2=O)OC1CO` (centres undefined): 183 to 184 °C.
For `COC(=O)C(c1ccc(Cl)cc1)c1ncc(C(F)(F)F)cc1Cl` (centres undefined), the melting point is 103 to 104 °C.
`O=c1nc(-c2cccc(CS(=O)Cc3ccccc3)n2)sc2ccccc12` (centres undefined) returned a melting point of 187 to 189 °C.
In turn, `CCn1nc(C)cc1C(=O)OC` registered a melting point of 130 to 133 °C.
The compound `CC(=O)c1cc(OCc2ccccc2)cc2c1OC(C)(C)C(=O)N2` gave a melting point of 148 to 150 °C.
Next, `CC(=O)c1c(-c2ccncc2)[nH]c(-c2ccnc3ccccc23)c1C`: 237 to 239 °C; `O=C(O)c1ccc2oc(-c3ccc(C(F)(F)F)nc3)cc2c1`: > 260 °C; `O=C(O)COc1c(-c2ccccc2)cc([N+](=O)[O-])cc1-c1ccccc1`: 154 to 156 °C.
As for `CC(=O)c1cn(C)c2ccc(C)cc12`, the melting point lay within 119 to 121 °C.
In the case of `COc1ccc(CC(=O)c2ccc(OC)c(F)c2)cc1` it was 142 to 143 °C.
In the case of `CC(=O)c1ccc(S(=O)(=O)NCCCn2ccnc2)cc1` it was 142 to 144 °C.
Next, `COC(=O)CCCc1cc2cc(Cl)ccc2n1S(=O)(=O)c1ccc2c(c1)CN(C(C)=O)CC2`: 50 to 52 °C; `NC(=O)CNc1ncccc1NC(=O)c1cccc(Cl)c1`: 210 to 211 °C.
With `ClCc1cccc(-c2nnn[nH]2)c1`, the melting point is 152 to 154 °C.
`CCOC(=O)NC1Cc2ccccc2C1Nc1ccc(OC)cc1CO` (centres undefined) had a melting point of 142 to 144 °C.
Next, `NCCc1cccc(Cn2ccc(OCc3ccc(F)cc3F)c(Br)c2=O)c1`: 70 to 74 °C.
Next, `CC(C)Cc1[nH]c(=O)[nH]c1-c1cc(C(C)(C)C)c(O)c(C(C)(C)C)c1`: 286 to 289 °C.
In the case of `Cc1nc2c(NC(=O)C(C)(C)C)c(C(=O)C=Cc3ccccc3)ccn2c1C` it was 108 to 110 °C.
`CN(C(=O)Nc1ccc(Cl)cc1)c1nnc(Br)s1` showed a melting point of 250 °C.
As for `CCN(CC)c1ccc(C2(c3ccc(N(C)C)cc3)OC(=O)c3ccccc32)c(N(CC)CC)c1` (centres undefined), the melting point was in the range of 117 to 119 °C.
In the case of `C[C@H]1[C@H](OS(C)(=O)=O)CN1C(c1ccccc1)c1ccccc1` (relative stereo) it was 68 to 71 °C; in that of `CCCn1c(=O)c2[nH]c(-c3ccc(OCC(=O)O)cc3)nc2n(CCC)c1=O`, 214 to 216 °C.
Next, `CC(C)S(=O)(=O)C(C#N)=CC=CN(C)C`: 102 to 104 °C; `Cc1c(C(=O)O)sc(=O)c2ccccc12`: 243 to 245 °C.
For `CCc1c(C)nc2c(C)cccn2c1=O`, the melting point lay in the range of 90 to 92 °C.
The compound `CC(C)n1nc(O)nc1N1CCCC1` had a melting point of 123 to 125 °C.
`CS(=O)(=O)Oc1cnc2cc(OC(F)(F)F)ccc2c1O` had a melting point of 125 to 127 °C.
In the case of `CC(OC1CCCN(Cc2ncn[nH]2)C1c1ccccc1)c1cc(C(F)(F)F)cc(C(F)(F)F)c1` (centres undefined) it was 182 to 183 °C; in that of `COc1cccc(C2(CC(=O)O)CCCC2C(=O)O)c1` (centres undefined), 175 to 180 °C; in that of `CCN1c2ncccc2C(=O)Nc2c(C)cc(NCCO)nc21`, 241 to 244 °C.
As for `O=C(O)CCCCCC=C(c1ccccc1)c1ccccc1`, the melting point is 88 to 89 °C.
The compound `Cc1ccc([C@H](CC(=O)O)NC(=O)Nc2c(O)ccn(Cc3ccccc3Cl)c2=O)cc1` gave a melting point of 113 to 115 °C.
Next, `O=C(Nc1ccc2nc(CN3CCOCC3)ccc2c1)c1ccc(-c2ccccc2)cc1`: 214 to 215 °C; `COc1c(C=Cc2ccc(C=CC3=C(C#N)C(=C(C#N)C#N)OC3(C)C)s2)cc2c3c1CCCN3CCC2`: 201 to 204 °C.

Values taken from a melting point compilation (Tetko et al.; mined from patent text by program, amines drawn as free bases though some values may be those of a salt).
